Results as given in US6737383B1, “Herbicidal oxadiazolidines” (priority 1999, dated 2004).

Legend:
bedstraw = assay: Test B pre/postemergence bedstraw; type: in vivo, Galium aparine; conditions: Postemergence, Rate 250 g/ha; scale of 0 to 10, 0 is no effect, 10 is complete control
Outline: (§1)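 Test chemicals in a non-phytotoxic solvent mixture with surfactant were sprayed preemergence onto planted seeds and postemergence onto plants 2 to 18 cm tall (1- to 4-leaf stage). After twelve to sixteen days in a greenhouse, injury was visually rated against untreated controls from 0 (no effect) to 10 (complete control).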

blackgrass = assay: Test B pre/postemergence blackgrass; type: in vivo, Alopecurus myosuroides
Outline: as §1

surinam grass = assay: Test B pre/postemergence surinam grass; type: in vivo, Brachiaria decumbens
Outline: as §1

cocklebur = assay: Test B pre/postemergence cocklebur; type: in vivo, Xanthium strumarium
Outline: as §1

corn = assay: Test B pre/postemergence corn; type: in vivo, Zea mays
Outline: as §1

crabgrass = assay: Test B pre/postemergence crabgrass; type: in vivo, Digitaria sanguinalis
Outline: as §1

giant foxtail = assay: Test B pre/postemergence giant foxtail; type: in vivo, Setaria faberii
Outline: as §1

morningglory = assay: Test B pre/postemergence morningglory; type: in vivo, Ipomoea hederacea
Outline: as §1

velvetleaf = assay: Test B pre/postemergence velvetleaf; type: in vivo, Abutilon theophrasti
Outline: as §1

wheat = assay: Test B pre/postemergence wheat; type: in vivo, Triticum aestivum
Outline: as §1

wild oat = assay: Test B pre/postemergence wild oat; type: in vivo, Avena fatua
Outline: as §1

purple nutsedge = assay: Test B pre/postemergence purple nutsedge; type: in vivo, Cyperus rotundus
Outline: as §1

rice = assay: Test B flood test rice; type: in vivo, Oryza sativa
Outline: (§2)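 Flood test on plants grown to the 2-leaf stage; treated plants kept in greenhouse twelve to sixteen days, then visually rated against controls on a 0 (no effect) to 10 (complete control) scale.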

smallflower flatsedge = assay: Test B flood test smallflower flatsedge; type: in vivo, Cyperus difformis
Outline: as §2

duck salad = assay: Test B flood test duck salad; type: in vivo, Heteranthera limosa
Outline: as §2

bamyardgrass = assay: Test B flood test barnyardgrass; type: in vivo, Echinochloa crus-galli
Outline: as §2

[1] = Postemergence, Rate 62 g/ha, scale 0 to 10, 0 is no effect, 10 is complete control
[2] = Postemergence, Rate 125 g/ha, scale of 0 to 10 where 0 is no effect and 10 is complete control
[3] = Postemergence, Rate 250 g/ha, scale of 0 to 10, 0 is no effect, 10 is complete control
[4] = Preemergence, Rate 62 g/ha, scale of 0 to 10 where 0 is no effect and 10 is complete control
[5] = Preemergence, Rate 125 g/ha, scale of 0 to 10 where 0 is no effect and 10 is complete control
[6] = Preemergence, Rate 250 g/ha, scale 0 to 10 (0 no effect, 10 complete control)
[7] = Preemergence, Rate 500 g/ha, scale of 0 to 10 where 0 is no effect and 10 is complete control
[8] = Rate 500 g/ha, Postemergence, scale 0 to 10, 0 is no effect, 10 is complete control
[9] = Rate 62 g/ha, flood test species, Pre-emergence, visual evaluation after twelve to sixteen days
[10] = Rate 125 g/ha, under heading Pre-emergence, flood test species, visual evaluation after twelve to sixteen days
[11] = Rate 250 g/ha, Pre-emergence (flood test species), scale 0 to 10, 0 is no effect, 10 is complete control
[12] = Rate 500 g/ha, Pre-emergence section of Table B, 0 to 10 scale (0 no effect, 10 complete control)

Structure (SMILES): CC[C@@H](C)n1c(=O)on(C(=O)N(c2ccc(Cl)cc2)C(C)C)c1=O [Compound 665]
- Bedstraw plant response rating (bedstraw): 0
- Plant response rating, Blackgrass (blackgrass; [1]): 3
- Blackgrass plant response rating (blackgrass; [2]): 7
- Blackgrass plant response rating (blackgrass; [3]): 8
- Blackgrass plant response rating (blackgrass; [4]): 5
- Blackgrass plant response rating (blackgrass; [5]): 7
- Plant response rating, Blackgrass (blackgrass; [6]): 8
- Plant response rating, Blackgrass (blackgrass; [7]): 9
- Blackgrass plant response rating (blackgrass; [8]): 8
- Plant response rating, B. signalgrass (surinam grass; [1]): 0
- Plant response rating, B. signalgrass (surinam grass; [2]): 0
- B. signalgrass plant response rating (surinam grass; [3]): 1
- B. signalgrass plant response rating (surinam grass; [4]): 1
- B. signalgrass plant response rating (surinam grass; [5]): 4
- Plant response rating, B. signalgrass (surinam grass; [6]): 8
- Plant response rating, B. signalgrass (surinam grass; [7]): 8
- B. signalgrass plant response rating (surinam grass; [8]): 5
- Plant response rating, Cocklebur (cocklebur; [1]): 0
- Cocklebur plant response rating (cocklebur; [2]): 0
- Cocklebur plant response rating (cocklebur; [3]): 0
- Cocklebur plant response rating (cocklebur; [4]): 0
- Cocklebur plant response rating (cocklebur; [5]): 0
- Plant response rating, Cocklebur (cocklebur; [6]): 0
- Plant response rating, Cocklebur (cocklebur; [7]): 0
- Cocklebur plant response rating (cocklebur; [8]): 2
- Plant response rating, Corn (corn; [1]): 0
- Corn plant response rating (corn; [2]): 0
- Corn plant response rating (corn; [3]): 0
- Corn plant response rating (corn; [4]): 0
- Corn plant response rating (corn; [5]): 0
- Plant response rating, Corn (corn; [6]): 0
- Plant response rating, Corn (corn; [7]): 3
- Corn plant response rating (corn; [8]): 3
- Plant response rating, Crabgrass (crabgrass; [1]): 1
- Crabgrass plant response rating (crabgrass; [2]): 7
- Crabgrass plant response rating (crabgrass; [3]): 9
- Crabgrass plant response rating (crabgrass; [4]): 6
- Crabgrass plant response rating (crabgrass; [5]): 8
- Plant response rating, Crabgrass (crabgrass; [6]): 9
- Plant response rating, Crabgrass (crabgrass; [7]): 10
- Crabgrass plant response rating (crabgrass; [8]): 9
- Plant response rating, Giant foxtail (giant foxtail; [1]): 2
- Giant foxtail plant response rating (giant foxtail; [2]): 4
- Giant foxtail plant response rating (giant foxtail; [3]): 8
- Giant foxtail plant response rating (giant foxtail; [4]): 9
- Giant foxtail plant response rating (giant foxtail; [5]): 10
- Plant response rating, Giant foxtail (giant foxtail; [6]): 10
- Plant response rating, Giant foxtail (giant foxtail; [7]): 10
- Giant foxtail plant response rating (giant foxtail; [8]): 9
- Plant response rating, Morningglory (morningglory; [1]): 4
- Morningglory plant response rating (morningglory; [2]): 6
- Morningglory plant response rating (morningglory; [3]): 6
- Morningglory plant response rating (morningglory; [4]): 0
- Morningglory plant response rating (morningglory; [5]): 0
- Plant response rating, Morningglory (morningglory; [6]): 0
- Plant response rating, Morningglory (morningglory; [7]): 4
- Morningglory plant response rating (morningglory; [8]): 8
- Plant response rating, Velvetleaf (velvetleaf; [1]): 0
- Velvetleaf plant response rating (velvetleaf; [2]): 2
- Velvetleaf plant response rating (velvetleaf; [4]): 0
- Velvetleaf plant response rating (velvetleaf; [5]): 0
- Plant response rating, Velvetleaf (velvetleaf; [6]): 4
- Plant response rating, Velvetleaf (velvetleaf; [7]): 7
- Velvetleaf plant response rating (velvetleaf; [8]): 7
- Plant response rating, Wheat (wheat; [1]): 0
- Wheat plant response rating (wheat; [2]): 0
- Wheat plant response rating (wheat; [4]): 0
- Wheat plant response rating (wheat; [5]): 3
- Plant response rating, Wheat (wheat; [6]): 4
- Plant response rating, Wheat (wheat; [7]): 4
- Wheat plant response rating (wheat; [8]): 4
- Plant response rating, Wild oats (wild oat; [1]): 0
- Wild oats plant response rating (wild oat; [2]): 0
- Wild oats plant response rating (wild oat; [4]): 3
- Wild oats plant response rating (wild oat; [5]): 5
- Plant response rating, Wild oats (wild oat; [6]): 7
- Plant response rating, Wild oats (wild oat; [7]): 8
- Wild oats plant response rating (wild oat; [8]): 5
- Nutsedge plant response rating (purple nutsedge; [2]): 0
- Nutsedge plant response rating (purple nutsedge; [4]): 0
- Nutsedge plant response rating (purple nutsedge; [5]): 0
- Plant response rating, Nutsedge (purple nutsedge; [6]): 0
- Nutsedge plant response rating (purple nutsedge; [8]): 0
- Plant response rating, Rice (0 to 10 scale, 0 is no effect, 10 is complete control) (rice; [9]): 0
- Rice plant response rating (0 to 10 scale, 0 is no effect, 10 is complete control) (rice; [10]): 0
- Rice plant response rating (rice; [11]): 0
- Rice plant response rating (rice; [12]): 0
- Plant response rating, S. Flatsedge (0 to 10 scale, 0 is no effect, 10 is complete control) (smallflower flatsedge; [9]): 0
- S. Flatsedge plant response rating (0 to 10 scale, 0 is no effect, 10 is complete control) (smallflower flatsedge; [10]): 0
- S. Flatsedge plant response rating (smallflower flatsedge; [11]): 0
- S. Flatsedge plant response rating (smallflower flatsedge; [12]): 0
- Plant response rating, Ducksalad (0 to 10 scale, 0 is no effect, 10 is complete control) (duck salad; [9]): 0
- Ducksalad plant response rating (0 to 10 scale, 0 is no effect, 10 is complete control) (duck salad; [10]): 0
- Ducksalad plant response rating (duck salad; [11]): 0
- Ducksalad plant response rating (duck salad; [12]): 0
- Plant response rating, Barnyardgrass (0 to 10 scale, 0 is no effect, 10 is complete control) (bamyardgrass; [9]): 0
- Barnyardgrass plant response rating (0 to 10 scale, 0 is no effect, 10 is complete control) (bamyardgrass; [10]): 0
- Barnyardgrass plant response rating (bamyardgrass; [11]): 2
- Barnyardgrass plant response rating (bamyardgrass; [12]): 6
